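The compound was tested at five concentrations on cells cultured in 96-well plates, with a 48-hour exposure period. Abbreviation: GI50, concentration required for 50% inhibition of growth.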 Calls of active or inactive are those of the source. No stated cut-off is given here; in the data, active = GI50 up to about 1.1 µM and inactive = higher.
Legend:
Assay in all cases: NCI tumour cell line growth inhibition, 48 h
HT-29 = test system: HT-29
DU-145 = test system: DU-145
T47D = test system: T47D
NCI-H23 = test system: NCI-H23
HL-60 = test system: HL-60
786-0 = test system: 786-0
CCRF-CEM = test system: CCRF-CEM
A498 = test system: A498
KM12 = test system: KM12
HOP-62 = test system: HOP-62
OVCAR-4 = test system: OVCAR-4
MDA-MB-435 = test system: MDA-MB-435
LOX IMVI = test system: LOX IMVI
MCF7 = test system: MCF7
PC-3 = test system: PC-3
SK-OV-3 = test system: SK-OV-3
UACC-257 = test system: UACC-257
HOP-92 = test system: HOP-92
SF-539 = test system: SF-539
SF-295 = test system: SF-295
BT-549 = test system: BT-549
COLO 205 = test system: COLO 205
OVCAR-8 = test system: OVCAR-8
CAKI-1 = test system: CAKI-1
SW-620 = test system: SW-620
UACC-62 = test system: UACC-62
TK-10 = test system: TK-10
MOLT-4 = test system: MOLT-4
SK-MEL-28 = test system: SK-MEL-28
MDA-N = test system: MDA-N
RPMI-8226 = test system: RPMI-8226
SNB-75 = test system: SNB-75
M14 = test system: M14
K562 = test system: K562
NCI-H522 = test system: NCI-H522
MDA-MB-231 = test system: MDA-MB-231
SNB-19 = test system: SNB-19
ACHN = test system: ACHN
SN12C = test system: SN12C
A549 = test system: A549
NCI-H460 = test system: NCI-H460
SK-MEL-2 = test system: SK-MEL-2
HCT-116 = test system: HCT-116
EKVX = test system: EKVX
OVCAR-5 = test system: OVCAR-5
NCI-H226 = test system: NCI-H226
SK-MEL-5 = test system: SK-MEL-5
HCT-15 = test system: HCT-15
UO-31 = test system: UO-31
SF-268 = test system: SF-268
RXF 393 = test system: RXF 393
NCI/ADR-RES = test system: NCI/ADR-RES
OVCAR-3 = test system: OVCAR-3
HCC 2998 = test system: HCC 2998
U-251 = test system: U-251
Hs-578T = test system: Hs-578T
Malme-3M = test system: Malme-3M
IGROV-1 = test system: IGROV-1

With `O=C(c1cc(Br)ccc1O)c1cc(Br)ccc1O` the GI50 (HT-29) was 17.7 µM (inactive), the GI50 (DU-145) was 15.8 µM (inactive) and the GI50 (T47D) was 14.2 µM (inactive). For the same compound, the GI50 (NCI-H23) was 17.1 µM (inactive), the GI50 (HL-60) was 22.4 µM (inactive) and the GI50 (786-0) was 16.9 µM (inactive). For the same compound, the GI50 (CCRF-CEM) was 22.5 µM (inactive), the GI50 (A498) was 17.6 µM (inactive) and the GI50 (KM12) was 17.1 µM (inactive). For the same compound, the GI50 (HOP-62) was 18.7 µM (inactive), the GI50 (OVCAR-4) was 16.6 µM (inactive) and the GI50 (MDA-MB-435) was 15.8 µM (inactive). For the same compound, the GI50 (LOX IMVI) was 18.2 µM (inactive), the GI50 (MCF7) was 16.8 µM (inactive) and the GI50 (PC-3) was 17.1 µM (inactive). For the same compound, the GI50 (SK-OV-3) was 19.4 µM (inactive), the GI50 (UACC-257) was 15.7 µM (inactive) and the GI50 (HOP-92) was 13.6 µM (inactive). For the same compound, the GI50 (SF-539) was 21.2 µM (inactive), the GI50 (SF-295) was 17.7 µM (inactive) and the GI50 (BT-549) was 17.8 µM (inactive). The GI50 (COLO 205) was 17.4 µM (inactive), the GI50 (OVCAR-8) was 16.9 µM (inactive) and the GI50 (CAKI-1) was 18.2 µM (inactive). For the same compound, the GI50 (SW-620) was 16.4 µM (inactive), the GI50 (UACC-62) was 13.1 µM (inactive) and the GI50 (TK-10) was 18.9 µM (inactive). For the same compound, the GI50 (MOLT-4) was 18.4 µM (inactive), the GI50 (SK-MEL-28) was 16.8 µM (inactive) and the GI50 (MDA-N) was 14.3 µM (inactive). The GI50 (RPMI-8226) was 11.3 µM (inactive), the GI50 (SNB-75) was 16.4 µM (inactive) and the GI50 (M14) was 15.7 µM (inactive). For the same compound, the GI50 (K562) was 15.3 µM (inactive), the GI50 (NCI-H522) was 15 µM (inactive) and the GI50 (MDA-MB-231) was 17.2 µM (inactive). For the same compound, the GI50 (SNB-19) was 17.2 µM (inactive), the GI50 (ACHN) was 16.4 µM (inactive) and the GI50 (SN12C) was 16.7 µM (inactive). The GI50 (A549) was 17.5 µM (inactive), the GI50 (NCI-H460) was 17.6 µM (inactive) and the GI50 (SK-MEL-2) was 15.7 µM (inactive). For the same compound, the GI50 (HCT-116) was 15.9 µM (inactive), the GI50 (EKVX) was 15.6 µM (inactive) and the GI50 (OVCAR-5) was 17.4 µM (inactive). For the same compound, the GI50 (NCI-H226) was 20 µM (inactive), the GI50 (SK-MEL-5) was 12.6 µM (inactive) and the GI50 (HCT-15) was 18.7 µM. The GI50 (UO-31) was 14.3 µM (inactive), the GI50 (SF-268) was 19.5 µM (inactive) and the GI50 (RXF 393) was 14.7 µM (inactive). The GI50 (NCI/ADR-RES) was 18.8 µM (inactive), the GI50 (OVCAR-3) was 15.7 µM (inactive) and the GI50 (HCC 2998) was 19.1 µM (inactive). For the same compound, the GI50 (U-251) was 15.5 µM (inactive), the GI50 (Hs-578T) was 29.8 µM (inactive) and the GI50 (Malme-3M) was 17.3 µM (inactive). For the same compound, the GI50 (IGROV-1) was 14.3 µM (inactive).

In the case of `Cc1ccc(C(=O)Nc2ccc(CP(=O)(O)O)cc2CP(=O)(O)O)cc1NC(=O)c1cccc(N)c1`, the GI50 (HT-29) is reported as > 100 µM (inactive), the GI50 (DU-145) is reported as > 100 µM (inactive) and the GI50 (T47D) is reported as > 100 µM (inactive). For the same compound, the GI50 (NCI-H23) was > 100 µM (inactive), the GI50 (HL-60) was > 100 µM (inactive) and the GI50 (786-0) was > 100 µM (inactive). The GI50 (CCRF-CEM) was > 100 µM (inactive), the GI50 (A498) was > 100 µM (inactive) and the GI50 (KM12) was > 100 µM (inactive). For the same compound, the GI50 (HOP-62) was > 100 µM (inactive), the GI50 (OVCAR-4) was > 100 µM (inactive) and the GI50 (MDA-MB-435) was > 100 µM (inactive). The GI50 (LOX IMVI) was > 100 µM (inactive), the GI50 (MCF7) was > 100 µM (inactive) and the GI50 (PC-3) was > 100 µM (inactive). For the same compound, the GI50 (SK-OV-3) was > 100 µM (inactive), the GI50 (UACC-257) was > 100 µM (inactive) and the GI50 (SF-539) was > 100 µM (inactive). For the same compound, the GI50 (SF-295) was > 100 µM (inactive), the GI50 (BT-549) was > 100 µM (inactive) and the GI50 (COLO 205) was > 100 µM (inactive). The GI50 (OVCAR-8) was > 100 µM (inactive), the GI50 (CAKI-1) was > 100 µM (inactive) and the GI50 (SW-620) was > 100 µM (inactive). For the same compound, the GI50 (UACC-62) was > 100 µM (inactive), the GI50 (TK-10) was > 100 µM (inactive) and the GI50 (MOLT-4) was > 100 µM (inactive). The GI50 (SK-MEL-28) was > 100 µM (inactive), the GI50 (MDA-N) was > 100 µM (inactive) and the GI50 (RPMI-8226) was > 100 µM (inactive). For the same compound, the GI50 (SNB-75) was > 100 µM (inactive), the GI50 (M14) was > 100 µM (inactive) and the GI50 (K562) was > 100 µM (inactive). For the same compound, the GI50 (NCI-H522) was > 100 µM (inactive), the GI50 (MDA-MB-231) was > 100 µM (inactive) and the GI50 (ACHN) was > 100 µM (inactive). The GI50 (SN12C) was > 100 µM (inactive), the GI50 (A549) was > 100 µM (inactive) and the GI50 (NCI-H460) was > 100 µM (inactive). For the same compound, the GI50 (SK-MEL-2) was > 100 µM (inactive), the GI50 (HCT-116) was > 100 µM (inactive) and the GI50 (EKVX) was > 100 µM (inactive). The GI50 (OVCAR-5) was > 100 µM (inactive), the GI50 (NCI-H226) was > 100 µM (inactive) and the GI50 (SK-MEL-5) was > 100 µM (inactive). The GI50 (HCT-15) was greater than 100 µM, the GI50 (UO-31) was > 100 µM (inactive) and the GI50 (SF-268) was > 100 µM (inactive). For the same compound, the GI50 (RXF 393) was > 100 µM (inactive), the GI50 (NCI/ADR-RES) was > 100 µM (inactive) and the GI50 (OVCAR-3) was > 100 µM (inactive). The GI50 (HCC 2998) was > 100 µM (inactive), the GI50 (U-251) was > 100 µM (inactive) and the GI50 (Hs-578T) was > 100 µM (inactive). The GI50 (Malme-3M) was > 100 µM (inactive) and the GI50 (IGROV-1) was > 100 µM (inactive).
